According to patent US20140039044A1, “Hydroxylated Polymethoxyflavone Compositions” (WLLGEN, INC., priority 2006, published 2014):
Read-outs that look alike come from different tables or passages of the source.

Columns and labels:
Format in all cases: cell-based, human
[1] = system: caspase-12; assay: Caspase-12 activity assay (fluorogenic substrate, immunofluorescence); conditions: MCF-7 cells, day 3 or 6, FIG. 12B, 13C,D
Method: (§1) Calpain and caspase-12 activities were measured with the cell-permeable fluorogenic peptide substrates t-Boc-Leu-Met-CMAC (50 μM; CMAC, 7-amino-4-chloromethyl coumarin; Molecular Probes) and Ala-Thr-Ala-Asp-AFC (50 μM; AFC, 7-amino-4-trifluoromethyl coumarin; Caspase-12 Fluorometric Assay Kit, BioVision), respectively. See, e.g., Roser and Gores (2000) Meth. Mol. Biol. 144:2452-2466. Polyclonal antibodies directed against caspase-12 (BioVision) and monoclonal antibodies directed against the calpain small (cleaved) subunit (Chemicon) were used to evaluate activation of these proteases. For immunofluorescence labeling, the fixed and permeabilized cell preparations were pre-incubated with non-specific serum for 20 min, incubated for 1 h at 37° C. or overnight at 4° C. with the primary antibodies and 1 h at room temperature with secondary antibodies using ALEXA FLUOR-488 signal-amplification mouse antibodies (Molecular Probes) and FITC- or Texas Red-conjugated anti-rabbit and anti-mouse IgG (Molecular Probes). Fluorescence microscopy was carried out as described above for Ca^2+ imaging. Image analysis and measurement of fluorescence intensity was performed using MetaMorph 6.3 software (Molecular Devices/Universal Imaging), as described previously in Sergeev (1996) Endocrine 5: 335-340.

[2] = system: calpain; assay: Calpain activity assay (fluorogenic substrate, immunofluorescence); conditions: MCF-7 cells; for Calpain activation, in words: day 3 or 6, FIG. 12A, 13A,B
Method: as §1

[3] = system: intracellular Ca^2+ stores in MCF-7 cells; assay: Ca2+ mobilization from endoplasmic reticulum stores with thapsigargin (fura-2); conditions: for Filling of the endoplasmic reticulum Ca^2+ stores, in words: 25 μM; for Decrease of the Ca^2+ mobilization response: compound 4: 6.25 μM, compound 5: 12.5 μM
Method: (§2) To evaluate Ca^2+ influx from the extracellular space, the Mn^2+ entry rate, as a reporter of Ca^2+ influx, was measured. The images were recorded at excitation of 360 nm (the fura-2 isosbestic point) and 2 mM of extracellular Mn^2+. The rates of Ca^2+ entry were estimated from the slope of the liner portion of curves of the fura-2 fluorescence quench by Mn^2+. To evaluate Ca^2+ release from the intracellular stores, cells grown on coverslips were placed in D-PBS, and the mobilizer of the endoplasmic reticulum Ca^2+-stores, thapsigargin (1 μM), was added after recording the basal [Ca^2+]i. The peak values of the [Ca^2+]i increase, indicating the filling level of the Ca^2+-stores, were measured with fura-2.
(§3) To investigate mechanism of a sustained increase in [Ca^2+]i after treatment with PMFs, the rates of the background Ca^2+ influx from the extracellular space and the magnitudes of Ca^2+ release from the endoplasmic reticulum stores with thapsigargin were measured in the treated cells using methods described above.
(§4) In FIG. 11A through 11D, the concentration for each PMF was as follows: compound 4: 6.25 μM; compound 5: 12.5 μM; compound 6: 25 μM; and compound 7: 25 μM. […] The Ca^2+ entry rates (C, D) are presented as tangents of the linear portions of the fura-2 quench curves. Data in panel C are presented as means±SE for control cells or cells treated with PMFs 3 days (black bars) or 6 days (gray bars). […] Mn^2+ or thapsigargin was added after recording the basal level of fluorescence or basal [Ca^2+]i for 30-60 s.

[4] = system: MCF-7 breast cancer cells; assay: Apoptosis assay (Annexin V, Hoechst 33342); conditions: MCF-7 cells; for Apoptosis by morphological criteria (nuclear fragmentation): Hoechst 33342
Method: MCF-7 cells were maintained and assayed as described in Section 8.4 above. Apoptosis was evaluated by the plasma membrane and nuclear changes as previously described in Sergeev (2004) J. Steroid Biochem. Mol. Biol. 89-90:419-425. Briefly, An Annexin V assay (ALEXA FLUOR 488 Annexin V Assay Kit; Molecular Probes) was used for detection of the apoptotic plasma membrane (loss of membrane asymmetry due to phosphatidylserine translocation). Fluorescence (485 nm excitation, 530 nm emission) of the Annexin V-abeled cells grown in 96-well plates was measured in the FLx800 plate reader with KC software (BioTek) and expressed in fluorescence units per 1×10^3 cells. Propidium iodide uptake was used to evaluate non-apoptotic and apoptotic cell death (the dye permeates plasma membrane and stain nucleic acids of both necrotic and the late apoptotic cells). Fluorescence (530 nm excitation, 620 nm emission) of the propidium iodide-labeled cells was also measured in the FLx800 reader. Additionally, HOECHST 33342 and ALEXA FLUOR 488 Annexin V were employed to visualize apoptotic nuclei (nuclear fragmentation) and the apoptotic plasma membrane, respectively. Fluorescence microscopy of HOECHST 33342- and Annexin V-labeled cells was performed as described below for the cellular Ca^2+ and immunofluorescence imaging.

[5] = system: Ca^2+ influx in MCF-7 cells; assay: Ca2+ influx (Mn2+ entry rate, fura-2 quench); conditions: for Ca^2+ influx, in words: 25 μM; for Increase of Ca^2+ influx (Ca^2+ entry rates): compound 4: 6.25 μM, compound 5: 12.5 μM
Method: as §2, §3, §4

[6] = system: MCF-7 breast cancer cells; assay: Cell growth inhibition (cell number, total nucleic acid content); conditions: for IC50: MCF-7 cells, average of the day 3 and day 6 determinations, read-out: Inhibition of cell proliferation (IC50); for Inhibition of proliferation, in words: MCF-7 cells, 1, 3 or 6 days, FIG. 7
Method: Human colon carcinoma COLO205 and HT-29 cell lines (American Type Culture Collection (ATTC), Manassas, Va.) and the leukemia cell line HL-60 were maintained at 37° C. in 5% CO2 air in RPMI 1640 medium supplemented with 10% heat-inactivated fetal bovine serum (Gibco BRL, Grand Island, N.Y.), 100 units/mL penicillin, 100 μg/mL streptomycin and 2 mM 1-glutamine. The human gastric carcinoma AGS cell line (CCRC 60102), obtained from the Food Industry Research and Development Institute (Hsinchu, Taiwan), was maintained as described above, except that DMEM/F 12 was used as the medium rather than the RPMI 1640 medium. The human breast carcinoma MCF-7 cell line MCF-7 (ATTC) was cultured in RPMI 1640 medium supplemented with 5% fetal calf serum at 37° C. in a humidified atmosphere of 5% CO2 in air. The mouse macrophage cell line RAW 264.7 was maintained in RPMI 1640 supplemented with 100 U/ml penicillin, 100 μg/ml streptomycin, and 10% heat-inactivated fetal calf serum.
Cancer cells (2×10^5) were plated in 12-well Petri dishes. The next day, the medium was changed and treated with different concentration of the test compounds or compositions for 24 h. Where individual compounds were to be tested, stock solutions of the compound was prepared to contain 200 μM of the individual hydroxylated or non-hydroxylated PMF in dimethylsulfoxide (DMSO). Control cells were treated with DMSO to a final concentration of 0.05% (v/v). Depending on the objective of the particular experiment, cells were treating with test compound or composition for 1, 3 or 6 days. At the end of incubation, cells were harvested for cell count using a hemocytometer and measuring the cellular total nucleic acid content with the CyQUANT Cell Proliferation Assay Kit (Molecular Probes).
FIG. 7 presents cell number data, where cell numbers of cells treated to PMFs are presented as a percentage of control cells. The IC50 values for inhibition of cell proliferation are presented in Table 15 in which the concentration inhibiting cell growth by 50%, IC50, is presented as the average of the day 3 and day 6 determinations. The apparent minimal effective concentrations, ECmin, for induction of cell death, apoptosis, and increase in [Ca^2+]i are also indicated.

[7] = day 3 and 6 of treatment, dose-dependent

IC50 ([6]; Homo sapiens, MCF7) [µM] | Compound | Caspase-12 activation, in words [1] | Calpain activation, in words [2] | Filling of the endoplasmic reticulum Ca^2+ stores, in words [3] | Induction of cell apoptosis (ECmin, apparent minimal effective concentration) [4] [µM] | Induction of apoptosis (Annexin V), in words ([4]; 50-100 μM, day 6 of treatment) | Ca^2+ influx, in words [5] | Inhibition of proliferation, in words [6] | Decrease of the Ca^2+ mobilization response [3] [fold] | Apoptosis by morphological criteria (nuclear fragmentation) [4] | Induction of apoptosis (Annexin V), in words [4, 7] | Increase of Ca^2+ influx (Ca^2+ entry rates) [5] [fold] | Number of cells with activated calpain, in words ([2]; day 3 of treatment) | Proapoptotic activity (Annexin V), in words ([4]; 25-100 μM, day 6 of treatment) | IC50 [6] [µM]
> 50 | COc1ccc(-c2cc(=O)c3c(OC)c(OC)c(OC)cc3o2)cc1OC [Compound 7, 5,6,7,3′,4′-pentamethoxyflavone, reference compound] | No significant calpain and caspase-12 activation | No significant calpain and caspase-12 activation | did not affect the filling of the endoplasmic reticulum Ca^2+ stores | >50 | only a trend in inducing apoptosis | did not significantly increase Ca^2+ influx | inhibited proliferation of MCF-7 breast cancer cells in a dose- and time-dependent fashion |  |  |  |  |  |  | 
10.5 | COc1ccc(-c2cc(=O)c3c(OC)c(OC)c(OC)cc3o2)cc1O [Compound 5, 3′-hydroxy-5,6,7,4′-tetramethoxyflavone] | activation | activation |  | 3.125 |  |  | inhibited proliferation of MCF-7 breast cancer cells in a dose- and time-dependent fashion | 1.35 | confirmed apoptosis | induced apoptosis | 1.6 |  |  | 
2.5 | COc1ccc(-c2oc3c(OC)c(OC)c(OC)c(O)c3c(=O)c2OC)cc1OC [Compound C, 5-hydroxy-3,6,7,8,3′,4′-hexamethoxyflavone] | activation | activation |  | 1.56 |  |  | inhibited proliferation of MCF-7 breast cancer cells in a dose- and time-dependent fashion | 1.5 | confirmed apoptosis | induced apoptosis | 1.8 |  |  | 
 | COc1ccc(-c2oc3c(OC)c(OC)c(OC)c(OC)c3c(=O)c2OC)cc1OC [D, 3,5,6,7,8,3,4-heptamethoxyflavone, reference compound] | No significant calpain and caspase-12 activation | No significant calpain and caspase-12 activation | did not affect the filling of the endoplasmic reticulum Ca^2+ stores | >50 |  | did not significantly increase Ca^2+ influx | inhibited proliferation of MCF-7 breast cancer cells in a dose- and time-dependent fashion |  | confirmed apoptosis |  |  | a trend in increasing the number of cells with activated calpain | low proapototic activity | > 50
